Test results as given in patent publication US6080772A, “Thiazole compounds and methods of modulating signal transduction” (Sugen, Inc., priority 1997, dated 2000).
Values joined by “and” are separate entries in the source; they are usually repeats but may differ in a detail not shown here. Equal entries are not always repeated. Where two headings read alike, the source gives them in different places.

Experiments:
primary adipocytes = assay: Primary adipocyte glucose uptake assay (14C glucose); settings: test compound 50 mM without insulin, compared to samples containing only insulin (final concentration=100 μm)
insulin receptor (IR) = assay: Phosphotyrosine enzyme linked immunosorbent assay: pTyr on insulin receptor in NIH3T3 cells over-expressing human IR (H25 cells); settings: for ACTIVITY (compared to control) / CONC.: Table I; for CONC.: concentration of the compound which produces the percentage increase in phosphotyrosine over the vanadate control, 90 min incubation, no insulin; for EC50: read-out: ACTIVITY EC50; for one point determination, effect on PTYR: at 100 μm

SMILES	response in the primary adipocyte glucose uptake assay compared with the insulin control (primary adipocytes)	CONC. (insulin receptor (IR))	EC50 (insulin receptor (IR); Table II, […], no lot stated)	other results
O=[N+]([O-])c1cnc(Sc2nc(-c3ccc(Cl)cc3)n[nH]2)s1 [Compound 4, 3-(4-chlorophenyl)-5-[(5-nitrothiazol-2-yl)mercapto]-1,2,4-triazole]	did not give a response greater than or equal to the insulin control	100 µM	15 to 49 µM	ACTIVITY (compared to control) (insulin receptor (IR); […]): 30%
O=[N+]([O-])c1cnc(Sc2nnc(O)n2-c2ccccc2)s1 [Compound 5, 3-hydroxy-5-[(5-nitrothiazol-2-yl)mercapto]-4-phenyl-1,2,4-triazole]	did not give a response greater than or equal to the insulin control	13 µM	13 to 20 µM	ACTIVITY (compared to control) (insulin receptor (IR); […]): 30%
O=[N+]([O-])c1cnc(Sc2nnc(O)n2C2CCCCC2)s1 [Compound 6, 4-Cyclohexyl-3-hydroxy-5-[(5-nitrothiazol-2-yl)mercapto]-1,2,4-triazole]	did not give a response greater than or equal to the insulin control	100 µM		ACTIVITY (compared to control) (insulin receptor (IR); […]): 30%; increase (PTYR) (insulin receptor (IR); Table II, at 100 μM): 50%
O=[N+]([O-])c1cnc(Sc2nnc(O)n2Cc2ccccc2)s1 [Compound 7]	did not give a response greater than or equal to the insulin control	200 µM and 100 µM	13 µM	
O=[N+]([O-])c1cnc(Sc2nnc(O)n2-c2ccccc2C(F)(F)F)s1 [Compound 8, 3-hydroxy-5-[(5-nitrothiazol-2-yl)mercapto]-4-[2-(trifluoromethyl)phenyl]-1,2,4-triazole]	did not give a response greater than or equal to the insulin control	24 µM		ACTIVITY (compared to control) (insulin receptor (IR); […]): 30%
CCn1nc(C)cc1-c1nnc(Sc2ncc([N+](=O)[O-])s2)n1CCCOC [Compound 9, 3-(1-ethyl-3-methylpyrazol-5-yl)-4-(3-methoxy-n-propyl)-5-[5-(nitrothiazol-2-yl)mercapto]-1,2,4-triazole]	did not give a response greater than or equal to the insulin control	3.9 µM		ACTIVITY (compared to control) (insulin receptor (IR); […]): 50%; EC50 (insulin receptor (IR); Table II, LOT 2): 6 µM; EC50 (insulin receptor (IR); Table II, LOT3): 16 µM
Cn1ccnc1Sc1ncc([N+](=O)[O-])s1 [Compound 13, 1-Methyl-2-[(5-nitrothiazol-2-yl)mercapto]imidazole]	did not give a response greater than or equal to the insulin control			EC50 (insulin receptor (IR); Table II, LOT 1): 13 µM; EC50 (insulin receptor (IR); Table II, LOT 2): 14 µM
Nc1nnc(Sc2ncc([N+](=O)[O-])s2)s1 [Compound 14]	did not give a response greater than or equal to the insulin control		8 µM	
Cn1nnnc1Sc1ncc([N+](=O)[O-])s1 [Compound 15]	did not give a response greater than or equal to the insulin control			increase in PTYR (insulin receptor (IR); Table II, at 50 μM, LOT2): 40%; EC50 (insulin receptor (IR); Table II, LOT 1): 8.4 µM
O=[N+]([O-])c1cnc(Sc2nc3ccccc3[nH]2)s1 [Compound 79, 2-[(5-Nitrothiazol-2-yl)mercapto]benzimidazole]	did not give a response greater than or equal to the insulin control			EC50 (insulin receptor (IR); Table III, […]): 23 µM
O=[N+]([O-])c1cnc(Sc2ncc(C(F)(F)F)cn2)s1 [Compound 83, 2-[(5-Nitrothiazol-2-yl)mercapto]-5-(trifluoromethyl)pyrimidine]	did not give a response greater than or equal to the insulin control		8.8 µM	
Cc1nccc(C(F)(F)F)c1-c1nnc(Sc2ncc([N+](=O)[O-])s2)o1 [Compound 86, 2-[2-Methyl-4-(trifluoromethyl)pyrid-3-yl]-5-[(5-nitrothiazol-2-yl)mercapto]-1,3,4-oxadiazole]	did not give a response greater than or equal to the insulin control			increase in PTYR (insulin receptor (IR); Table II, at 25 μM): 59%
CC(C)n1c(Sc2ncc([N+](=O)[O-])s2)nc2ccccc21 [Compound 94, 1-Isopropyl-2-[(5-nitrothiazol-2-yl)mercapto]benzimidazole]	did not give a response greater than or equal to the insulin control		> 100 µM	
CC(C)n1c(Sc2ncc([N+](=O)[O-])s2)nc2cc(C(F)(F)F)ccc21 [Compound 95, 1-Isopropyl-2-[(5-nitrothiazol-2-yl)mercapto]-5-(trifluoromethyl)benzimidazole]	did not give a response greater than or equal to the insulin control		> 100 µM	
Cn1c(O)nnc1Sc1ncc([N+](=O)[O-])s1 [Compound 99]	did not give a response greater than or equal to the insulin control			one point determination, effect on PTYR (insulin receptor (IR); Table II): no effect
CCCCCn1c(O)nnc1Sc1ncc([N+](=O)[O-])s1 [Compound 100]	did not give a response greater than or equal to the insulin control			one point determination, effect on PTYR (insulin receptor (IR); Table II): no effect
O=[N+]([O-])c1cnc(Sc2nc3cnccc3[nH]2)s1 [Compound 101]	did not give a response greater than or equal to the insulin control		7 to 15 µM	
